Tests used:
Histamine H1 receptor = Histamine H1 receptor (Homo sapiens, UniProt P35367); test: Compound was tested for its affinity towards histaminergic (H 1) receptor
[1] = target: T1, 5-hydroxytryptamine receptor 3A (Homo sapiens, UniProt P46098); test: (§1) Compound was tested for its affinity towards 5-hydroxytryptamine 3 receptor
T1 sequence (P46098 whole entry): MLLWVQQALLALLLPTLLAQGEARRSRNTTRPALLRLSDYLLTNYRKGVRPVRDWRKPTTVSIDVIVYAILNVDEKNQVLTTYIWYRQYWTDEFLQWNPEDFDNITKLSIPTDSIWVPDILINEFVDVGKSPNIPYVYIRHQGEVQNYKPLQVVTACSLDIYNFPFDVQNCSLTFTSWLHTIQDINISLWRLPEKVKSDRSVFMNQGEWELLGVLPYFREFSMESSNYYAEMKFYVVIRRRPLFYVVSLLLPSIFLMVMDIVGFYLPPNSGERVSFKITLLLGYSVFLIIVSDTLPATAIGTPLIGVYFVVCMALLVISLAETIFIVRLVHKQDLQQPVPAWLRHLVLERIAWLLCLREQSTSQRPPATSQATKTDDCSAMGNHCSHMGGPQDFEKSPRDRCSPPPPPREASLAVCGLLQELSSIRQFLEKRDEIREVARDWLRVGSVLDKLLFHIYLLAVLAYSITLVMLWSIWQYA

[2] = target: T2, 5-hydroxytryptamine receptor 2C (Homo sapiens, UniProt P28335); test: (§2) Compound was tested for its affinity towards 5-hydroxytryptamine 1C receptor
T2 sequence (P28335 whole entry): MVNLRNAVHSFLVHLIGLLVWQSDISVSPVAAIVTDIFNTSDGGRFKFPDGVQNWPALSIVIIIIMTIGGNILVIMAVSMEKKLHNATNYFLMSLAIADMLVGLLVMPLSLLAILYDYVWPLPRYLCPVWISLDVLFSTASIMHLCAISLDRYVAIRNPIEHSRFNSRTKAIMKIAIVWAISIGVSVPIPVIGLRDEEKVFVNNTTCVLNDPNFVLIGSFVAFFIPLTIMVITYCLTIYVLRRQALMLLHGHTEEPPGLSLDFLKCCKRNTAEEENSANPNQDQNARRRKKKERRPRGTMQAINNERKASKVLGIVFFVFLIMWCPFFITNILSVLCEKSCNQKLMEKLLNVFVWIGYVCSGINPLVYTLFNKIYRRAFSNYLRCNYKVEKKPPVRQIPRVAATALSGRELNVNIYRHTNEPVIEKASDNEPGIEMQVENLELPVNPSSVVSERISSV

[3] = target: T3, Adrenergic receptor alpha-1 (Homo sapiens, UniProt P35348+P25100+P35368); test: Compound was tested for its affinity towards Alpha-1 adrenergic receptor; format: protein assay
T3 sequence (P35348 whole entry): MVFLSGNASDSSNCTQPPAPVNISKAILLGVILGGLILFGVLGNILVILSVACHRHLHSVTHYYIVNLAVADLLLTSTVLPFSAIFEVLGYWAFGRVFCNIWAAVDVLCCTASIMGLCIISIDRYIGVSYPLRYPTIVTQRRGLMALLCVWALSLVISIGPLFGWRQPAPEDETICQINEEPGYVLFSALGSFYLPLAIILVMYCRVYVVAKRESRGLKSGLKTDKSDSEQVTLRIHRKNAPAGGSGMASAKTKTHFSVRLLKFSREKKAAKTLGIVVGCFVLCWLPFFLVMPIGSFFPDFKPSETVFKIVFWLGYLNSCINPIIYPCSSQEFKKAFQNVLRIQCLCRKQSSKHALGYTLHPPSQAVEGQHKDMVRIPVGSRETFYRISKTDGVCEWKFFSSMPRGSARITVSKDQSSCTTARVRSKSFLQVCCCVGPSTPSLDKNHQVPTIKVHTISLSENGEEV
T3 sequence (P25100 whole entry): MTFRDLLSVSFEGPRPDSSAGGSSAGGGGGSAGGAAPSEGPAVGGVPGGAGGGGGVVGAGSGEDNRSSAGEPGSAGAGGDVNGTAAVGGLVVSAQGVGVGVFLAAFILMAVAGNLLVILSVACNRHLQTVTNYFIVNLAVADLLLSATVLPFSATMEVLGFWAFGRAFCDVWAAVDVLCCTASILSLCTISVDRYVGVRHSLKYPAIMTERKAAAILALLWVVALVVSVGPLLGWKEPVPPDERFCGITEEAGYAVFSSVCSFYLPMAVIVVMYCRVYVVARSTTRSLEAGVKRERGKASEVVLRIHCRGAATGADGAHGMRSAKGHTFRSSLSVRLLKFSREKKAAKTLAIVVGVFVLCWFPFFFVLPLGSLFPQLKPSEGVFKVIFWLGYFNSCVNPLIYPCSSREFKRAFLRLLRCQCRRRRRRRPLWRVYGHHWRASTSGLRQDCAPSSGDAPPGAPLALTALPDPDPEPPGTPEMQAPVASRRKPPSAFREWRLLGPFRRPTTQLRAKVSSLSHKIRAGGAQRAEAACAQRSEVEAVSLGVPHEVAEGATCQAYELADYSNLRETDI
T3 sequence (P35368 whole entry): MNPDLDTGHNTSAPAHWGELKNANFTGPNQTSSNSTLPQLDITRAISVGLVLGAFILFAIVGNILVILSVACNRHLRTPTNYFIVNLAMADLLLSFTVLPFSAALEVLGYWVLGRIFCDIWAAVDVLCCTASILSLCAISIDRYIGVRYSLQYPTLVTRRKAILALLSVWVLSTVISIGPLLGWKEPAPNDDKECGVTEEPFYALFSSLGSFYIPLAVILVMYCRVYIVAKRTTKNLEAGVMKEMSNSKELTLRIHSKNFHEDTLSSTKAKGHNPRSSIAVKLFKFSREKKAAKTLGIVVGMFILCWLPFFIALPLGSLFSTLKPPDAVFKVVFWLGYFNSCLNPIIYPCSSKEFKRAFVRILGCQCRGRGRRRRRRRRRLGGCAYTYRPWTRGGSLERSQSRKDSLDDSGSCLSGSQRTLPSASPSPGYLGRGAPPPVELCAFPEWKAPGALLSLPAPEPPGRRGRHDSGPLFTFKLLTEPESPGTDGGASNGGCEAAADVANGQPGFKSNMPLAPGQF

[4] = target: T4, 5-hydroxytryptamine receptor 4 (Homo sapiens, UniProt Q13639); test: Compound was tested for its affinity towards 5-hydroxy tryptamine 4 receptor
[5] = target: Serotonin 2 (5-HT2) receptor (Homo sapiens, UniProt P41595+P28223+P28335); test: Compound was tested for its affinity towards 5-hydroxytryptamine 2 receptor; format: protein assay
D(2) dopamine receptor = D(2) dopamine receptor (Homo sapiens, UniProt P14416); test: Compound was tested for its affinity towards dopaminergic (D2) receptor
[6] = target: T5, Muscarinic acetylcholine receptor M4 (Homo sapiens, UniProt P08173); test: Compound was tested for its affinity towards muscarinic (M) receptor
T5 sequence (P08173 whole entry): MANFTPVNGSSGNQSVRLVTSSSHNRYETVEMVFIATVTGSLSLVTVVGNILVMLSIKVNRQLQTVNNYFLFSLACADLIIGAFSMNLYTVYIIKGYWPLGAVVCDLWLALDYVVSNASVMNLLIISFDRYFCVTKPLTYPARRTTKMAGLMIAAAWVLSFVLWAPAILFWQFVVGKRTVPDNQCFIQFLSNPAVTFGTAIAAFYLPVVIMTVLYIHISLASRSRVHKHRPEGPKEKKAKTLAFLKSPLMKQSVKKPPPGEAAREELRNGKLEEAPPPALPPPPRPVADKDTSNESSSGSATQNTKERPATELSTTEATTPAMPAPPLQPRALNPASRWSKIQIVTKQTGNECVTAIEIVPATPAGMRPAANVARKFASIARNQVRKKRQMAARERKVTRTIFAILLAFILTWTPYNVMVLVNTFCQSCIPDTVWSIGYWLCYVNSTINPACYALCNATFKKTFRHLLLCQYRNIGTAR

Oryctolagus cuniculus = organism: Oryctolagus cuniculus; test: Compound was tested for its ability to contract rabbit saphenous vein; format: functional
[7] = target: 5-hydroxytryptamine receptor 1D (Cavia porcellus, UniProt Q60484); test: Binding affinity towards guinea pig 5-hydroxytryptamine 1D receptor was determined
[8] = target: T6, 5-hydroxytryptamine receptor 2C (Rattus norvegicus, UniProt P08909); test: as §2
T6 sequence (P08909 whole entry): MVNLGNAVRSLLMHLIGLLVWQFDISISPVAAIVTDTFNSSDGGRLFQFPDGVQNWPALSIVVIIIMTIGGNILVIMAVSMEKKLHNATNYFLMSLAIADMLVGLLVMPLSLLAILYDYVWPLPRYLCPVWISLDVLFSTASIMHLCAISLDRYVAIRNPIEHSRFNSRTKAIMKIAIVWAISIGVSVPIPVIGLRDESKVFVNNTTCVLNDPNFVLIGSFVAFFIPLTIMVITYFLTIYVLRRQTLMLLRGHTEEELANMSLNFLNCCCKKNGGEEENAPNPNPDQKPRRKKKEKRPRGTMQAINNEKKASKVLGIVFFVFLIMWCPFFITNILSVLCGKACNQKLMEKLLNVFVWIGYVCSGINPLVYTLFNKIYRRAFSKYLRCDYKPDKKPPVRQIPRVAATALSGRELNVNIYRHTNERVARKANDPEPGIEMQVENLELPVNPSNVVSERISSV

[9] = target: T7, 5-hydroxytryptamine receptor 1A (Homo sapiens, UniProt P08908); test: Binding affinity towards cloned human 5-hydroxytryptamine 1A receptor was determined
T7 sequence (P08908 whole entry): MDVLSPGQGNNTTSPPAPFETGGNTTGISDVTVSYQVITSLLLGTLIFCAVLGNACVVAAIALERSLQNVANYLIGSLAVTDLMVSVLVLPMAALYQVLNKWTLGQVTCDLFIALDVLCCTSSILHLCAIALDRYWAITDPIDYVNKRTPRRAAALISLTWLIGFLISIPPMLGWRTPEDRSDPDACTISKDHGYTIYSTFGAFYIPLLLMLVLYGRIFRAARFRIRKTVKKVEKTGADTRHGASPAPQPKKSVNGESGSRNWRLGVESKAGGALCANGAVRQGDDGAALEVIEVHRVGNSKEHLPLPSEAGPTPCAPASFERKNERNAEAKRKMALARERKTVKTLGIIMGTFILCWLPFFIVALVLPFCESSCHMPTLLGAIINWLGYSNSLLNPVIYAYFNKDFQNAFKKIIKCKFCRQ

[10] = target: T4, 5-hydroxytryptamine receptor 4; test: Compound was tested for its affinity towards 5-hydroxytryptamine 4 receptor
[11] = target: Serotonin 3 (5-HT3) receptor; test: as §1; format: protein-complex assay
[12] = target: 5-hydroxytryptamine receptor 1D (Homo sapiens, UniProt P28221); test: Binding affinity towards cloned human 5-hydroxytryptamine 1D receptor alpha was determined
[13] = target: T7, 5-hydroxytryptamine receptor 1A; test: Compound was tested for its ability to inhibit forskolin-stimulated activity of adenylate cyclase coupled to human 5-hydroxytryptamine 1A receptor in HeLa cells; value ranges from 95-320; format: functional, cell-based
[14] = target: T7, 5-hydroxytryptamine receptor 1A; test: Compound was tested for its ability to inhibit forskolin-stimulated activity of adenylate cyclase coupled to human 5-HT 1A receptor in HeLa cells; value ranges from 85-370; format: functional, cell-based

Sequence of Histamine H1 receptor (P35367 whole entry): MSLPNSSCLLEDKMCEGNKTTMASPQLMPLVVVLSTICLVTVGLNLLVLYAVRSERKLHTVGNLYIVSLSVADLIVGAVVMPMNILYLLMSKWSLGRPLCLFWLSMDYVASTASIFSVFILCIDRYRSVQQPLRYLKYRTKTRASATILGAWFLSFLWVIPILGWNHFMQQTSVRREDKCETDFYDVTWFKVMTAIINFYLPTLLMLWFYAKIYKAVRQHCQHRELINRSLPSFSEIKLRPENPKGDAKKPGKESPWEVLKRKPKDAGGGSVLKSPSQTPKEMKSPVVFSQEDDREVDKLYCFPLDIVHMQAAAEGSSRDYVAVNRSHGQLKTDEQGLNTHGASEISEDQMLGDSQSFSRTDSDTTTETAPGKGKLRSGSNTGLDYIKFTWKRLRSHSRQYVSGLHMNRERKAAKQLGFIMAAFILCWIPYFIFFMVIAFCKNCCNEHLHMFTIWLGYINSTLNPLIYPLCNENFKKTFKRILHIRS
T4 sequence (Q13639 whole entry): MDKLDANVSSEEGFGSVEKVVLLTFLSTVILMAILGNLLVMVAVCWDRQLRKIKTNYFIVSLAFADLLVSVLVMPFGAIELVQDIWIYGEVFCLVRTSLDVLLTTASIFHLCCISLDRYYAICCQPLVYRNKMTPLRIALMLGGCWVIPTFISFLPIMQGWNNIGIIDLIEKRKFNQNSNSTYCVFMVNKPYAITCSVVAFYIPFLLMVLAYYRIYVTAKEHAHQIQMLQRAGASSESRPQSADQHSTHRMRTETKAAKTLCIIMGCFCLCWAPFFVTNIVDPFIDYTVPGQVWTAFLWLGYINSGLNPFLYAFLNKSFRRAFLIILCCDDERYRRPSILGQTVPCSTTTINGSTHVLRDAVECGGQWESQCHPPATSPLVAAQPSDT
Sequence of D(2) dopamine receptor (P14416 whole entry): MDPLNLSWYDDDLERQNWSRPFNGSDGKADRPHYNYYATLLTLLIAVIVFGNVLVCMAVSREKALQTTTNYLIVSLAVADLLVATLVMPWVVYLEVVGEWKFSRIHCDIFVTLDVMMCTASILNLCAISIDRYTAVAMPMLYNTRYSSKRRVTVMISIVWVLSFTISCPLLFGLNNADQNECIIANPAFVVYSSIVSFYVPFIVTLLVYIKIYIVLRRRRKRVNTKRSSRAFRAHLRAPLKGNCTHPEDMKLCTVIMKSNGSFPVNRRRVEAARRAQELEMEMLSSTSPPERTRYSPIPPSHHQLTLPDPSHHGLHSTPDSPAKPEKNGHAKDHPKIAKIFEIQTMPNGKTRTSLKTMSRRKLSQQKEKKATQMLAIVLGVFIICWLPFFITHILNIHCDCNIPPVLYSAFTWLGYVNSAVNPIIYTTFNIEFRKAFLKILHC
Sequence of 5-hydroxytryptamine receptor 1D (Homo sapiens, UniProt P28221) (P28221 whole entry): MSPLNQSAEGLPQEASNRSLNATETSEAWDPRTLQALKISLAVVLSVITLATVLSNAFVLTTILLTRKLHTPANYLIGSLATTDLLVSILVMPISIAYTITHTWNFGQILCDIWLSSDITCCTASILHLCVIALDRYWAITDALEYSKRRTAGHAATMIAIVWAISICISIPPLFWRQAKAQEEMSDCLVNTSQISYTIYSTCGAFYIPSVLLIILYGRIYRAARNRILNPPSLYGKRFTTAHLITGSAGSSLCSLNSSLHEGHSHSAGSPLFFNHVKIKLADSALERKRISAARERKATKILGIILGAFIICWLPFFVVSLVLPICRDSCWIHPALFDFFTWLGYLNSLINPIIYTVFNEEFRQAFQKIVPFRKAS
Sequence of 5-hydroxytryptamine receptor 1D (Cavia porcellus, UniProt Q60484) (Q60484 whole entry): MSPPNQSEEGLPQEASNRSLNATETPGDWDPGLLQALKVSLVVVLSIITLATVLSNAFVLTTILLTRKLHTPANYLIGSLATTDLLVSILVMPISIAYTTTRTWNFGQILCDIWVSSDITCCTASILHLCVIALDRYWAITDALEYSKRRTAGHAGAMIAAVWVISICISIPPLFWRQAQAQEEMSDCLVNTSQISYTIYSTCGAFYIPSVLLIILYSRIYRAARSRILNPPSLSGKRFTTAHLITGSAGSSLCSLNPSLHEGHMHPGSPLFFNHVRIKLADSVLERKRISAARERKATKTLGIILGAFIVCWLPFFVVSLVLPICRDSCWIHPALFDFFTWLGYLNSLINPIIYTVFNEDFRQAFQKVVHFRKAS

Row | SMILES | IC50 (Histamine H1 receptor) | IC50 [3] | IC50 [5] | IC50 (D(2) dopamine receptor) | IC50 [6] | pD2 (Oryctolagus cuniculus) | Ki [9] | Ki [12] | also measured
1 | Cc1ccccc1N1CCN(C(=O)COc2ccc3[nH]cc(CCN)c3c2)CC1 | > 10 µM | > 10 µM | > 10 µM | > 10 µM | > 10 µM |  |  |  | IC50 [1]: > 10 µM; IC50 [2]: > 10 µM; IC50 [4]: > 10 µM
2 | CNS(=O)(=O)Cc1ccc2[nH]cc(CCN(C)C)c2c1 |  |  |  |  |  | 5.75 |  |  | 
3 | NCCc1c[nH]c2ccc(OCC(=O)NCC(=O)N[C@@H](Cc3ccc(O)cc3)C(N)=O)cc12 |  |  |  |  |  |  |  |  | IC50 [7]: 0.06 µM
4 | NCCc1c[nH]c2ccc(OCC(=O)N3CCN(c4cccc5ccccc45)CC3)cc12 | > 1 µM | > 1 µM | > 1 µM | > 1 µM | > 1 µM |  | 0.0089 µM | 0.00095 µM | IC50 [8]: > 1 µM; IC50 [10]: > 1 µM; IC50 [11]: > 1 µM; EC50 [13]: 0.095 µM
5 | COc1cccc(N2CCN(C(=O)COc3ccc4[nH]cc(CCN)c4c3)CC2)c1 |  |  |  |  |  |  | 0.0098 µM | 0.002 µM | EC50 [14]: 0.085 µM
6 | NCCc1c[nH]c2ccc(OCC(=O)N3CCN(c4ccccc4)CC3)cc12 |  |  |  |  |  | 7.36 |  |  | 
